Common to all, as to assay type: functional
The subject of one test is Aspergillus fumigatus. Put plainly: Antifungal activity against Aspergillus fumigatus isolate 7544 by micro-broth dilution method.
For a further test, the system named is Nakaseomyces glabratus. Put plainly: Antifungal activity against Candida glabrata isolate 537 by micro-broth dilution method. On the technique in general: In broth dilution the organism is exposed to a series of concentrations in liquid medium.
For the next test, the system named is Candida parapsilosis. The experiment in a line: Antifungal activity against Candida parapsilosis isolate 22019 by micro-broth dilution method. The note with it: Lodderomyces parapsilosis.
In another test the test system is Trichophyton rubrum. The experiment in a line: Antifungal activity against Trichophyton rubrum isolate cmccftla by micro-broth dilution method.
For test [1], the system named is Candida albicans. Put plainly: Antifungal activity against Candida albicans isolate Y0109 by micro-broth dilution method.
The subject of test [2] is Candida albicans. The experiment in a line: Antifungal activity against Candida albicans isolate SC5314 by micro-broth dilution method.
Another test concerns Cryptococcus neoformans. The experiment in a line: Antifungal activity against Cryptococcus neoformans isolate 32605 by micro-broth dilution method.
The test system of another test is Nannizzia gypsea. The experiment in a line: Antifungal activity against Microsporum gypseum isolate cmccftla by micro-broth dilution method.

Each structure is given as a SMILES string. Values after ≈ are worked out from the molar mass of the structure shown.

As usually defined, the MIC80 is an inhibitory concentration at the 80% level, which refers to growth in some studies and to a panel of isolates in others. In the case of `C[C@@H](c1cc(-c2ccc([N+](=O)[O-])cc2)no1)[C@](O)(Cn1cncn1)c1ccc(F)cc1F`, the MIC80 in the test on Aspergillus fumigatus was above 8 µg/mL; in the test on Nakaseomyces glabratus, 0.5 µg/mL (≈ 1.13 µM); in the test on Candida parapsilosis, 0.5 µg/mL (≈ 1.13 µM); with Trichophyton rubrum, 1 µg/mL (≈ 2.27 µM); with Candida albicans [1], 0.125 µg/mL (≈ 0.283 µM); against Candida albicans [2], 0.125 µg/mL (≈ 0.283 µM). Moreover, the MIC80 in the test with Cryptococcus neoformans was determined as 0.125 µg/mL (≈ 0.283 µM); against Nannizzia gypsea it was 2 µg/mL (≈ 4.53 µM).

As for `C[C@@H](c1cc(-c2ccc(F)cc2)no1)[C@](O)(Cn1cncn1)c1ccc(F)cc1F`, the MIC80 against Aspergillus fumigatus was determined as 2 µg/mL (≈ 4.83 µM); against Nakaseomyces glabratus, 0.0313 µg/mL (≈ 0.0755 µM); in the test with Candida parapsilosis it was 0.0625 µg/mL (≈ 0.151 µM); with Trichophyton rubrum it was 0.0625 µg/mL (≈ 0.151 µM); with Candida albicans [1], 0.125 µg/mL (≈ 0.302 µM); against Candida albicans [2], 0.25 µg/mL (≈ 0.603 µM). Besides, the MIC80 against Cryptococcus neoformans was found to be 0.125 µg/mL (≈ 0.302 µM); in the test on Nannizzia gypsea it was 0.5 µg/mL (≈ 1.21 µM).

For `C[C@@H](c1cc(-c2ccc(Cl)cc2)no1)[C@](O)(Cn1cncn1)c1ccc(F)cc1F`, the MIC80 with Aspergillus fumigatus was found to be 4 µg/mL (≈ 9.28 µM); in the test on Nakaseomyces glabratus, 0.125 µg/mL (≈ 0.29 µM); against Candida parapsilosis it was 0.125 µg/mL (≈ 0.29 µM); against Trichophyton rubrum, 0.125 µg/mL (≈ 0.29 µM); with Candida albicans [1], 0.0313 µg/mL (≈ 0.0726 µM); against Candida albicans [2] it was 0.125 µg/mL (≈ 0.29 µM). In addition, the MIC80 with Cryptococcus neoformans was found to be 0.125 µg/mL (≈ 0.29 µM); against Nannizzia gypsea, 1 µg/mL (≈ 2.32 µM).

As for `Cc1ccc(-c2cc([C@H](C)[C@](O)(Cn3cncn3)c3ccc(F)cc3F)on2)cc1`, the MIC80 came to 8 µg/mL (≈ 19.5 µM) with Aspergillus fumigatus; 0.25 µg/mL (≈ 0.609 µM) with Nakaseomyces glabratus; 0.125 µg/mL (≈ 0.305 µM) against Candida parapsilosis; 0.25 µg/mL (≈ 0.609 µM) against Trichophyton rubrum; 0.25 µg/mL (≈ 0.609 µM) in the test on Candida albicans [1]; 0.0625 µg/mL (≈ 0.152 µM) against Candida albicans [2]. Moreover, the figures for the MIC80 against Cryptococcus neoformans and against Nannizzia gypsea were 0.125 µg/mL (≈ 0.305 µM) and 2 µg/mL (≈ 4.87 µM), respectively.

For `C[C@@H](c1cc(-c2ccc(C(F)(F)F)cc2)no1)[C@](O)(Cn1cncn1)c1ccc(F)cc1F`, the MIC80 against Aspergillus fumigatus is above 8 µg/mL; with Nakaseomyces glabratus it was 1 µg/mL (≈ 2.15 µM); against Candida parapsilosis it was 1 µg/mL (≈ 2.15 µM); against Trichophyton rubrum, 2 µg/mL (≈ 4.31 µM); against Candida albicans [1], 0.125 µg/mL (≈ 0.269 µM); with Candida albicans [2], 0.5 µg/mL (≈ 1.08 µM). Moreover, the values for the MIC80 against Cryptococcus neoformans and in the test on Nannizzia gypsea were 0.125 µg/mL (≈ 0.269 µM) and 2 µg/mL (≈ 4.31 µM), respectively.

As for `OC(Cn1cncn1)(Cn1cncn1)c1ccc(F)cc1F` [FLUCONAZOLE], the MIC80 against Aspergillus fumigatus is above 64 µg/mL; in the test with Nakaseomyces glabratus, 2 µg/mL (≈ 6.53 µM); against Candida parapsilosis, 2 µg/mL (≈ 6.53 µM); in the test on Trichophyton rubrum, 8 µg/mL (≈ 26.1 µM); against Candida albicans [1], 0.25 µg/mL (≈ 0.816 µM); against Candida albicans [2], 0.5 µg/mL (≈ 1.63 µM). Besides, the MIC80 in the test with Cryptococcus neoformans turned out to be 0.5 µg/mL (≈ 1.63 µM); in the test with Nannizzia gypsea it was 32 µg/mL (≈ 104 µM).

For the molecule `CC(=O)N1CCN(c2ccc(OCC3COC(Cn4ccnc4)(c4ccc(Cl)cc4Cl)O3)cc2)CC1` (centres undefined) [KETOCONAZOLE], the MIC80 is 4 µg/mL (≈ 7.53 µM) against Aspergillus fumigatus; 0.0625 µg/mL (≈ 0.118 µM) in the test with Nakaseomyces glabratus; 0.5 µg/mL (≈ 0.941 µM) in the test with Candida parapsilosis; 1 µg/mL (≈ 1.88 µM) in the test on Trichophyton rubrum; 0.25 µg/mL (≈ 0.47 µM) against Candida albicans [1]; 0.125 µg/mL (≈ 0.235 µM) with Candida albicans [2]. The figures for the MIC80 against Cryptococcus neoformans and in the test with Nannizzia gypsea were 0.0625 µg/mL (≈ 0.118 µM) and 1 µg/mL (≈ 1.88 µM), respectively.

Take `C[C@@H](c1nc(-c2ccc(C#N)cc2)cs1)[C@](O)(Cn1cncn1)c1ccc(F)cc1F` [RAVUCONAZOLE]: the MIC80 was 2 µg/mL (≈ 4.57 µM) in the test with Aspergillus fumigatus; 0.125 µg/mL (≈ 0.286 µM) with Nakaseomyces glabratus; 0.25 µg/mL (≈ 0.571 µM) against Candida parapsilosis; 0.125 µg/mL (≈ 0.286 µM) with Trichophyton rubrum; 0.0625 µg/mL (≈ 0.143 µM) with Candida albicans [1]; 0.0625 µg/mL (≈ 0.143 µM) against Candida albicans [2]. Further, the MIC80 against Cryptococcus neoformans is 0.125 µg/mL (≈ 0.286 µM); in the test on Nannizzia gypsea, 1 µg/mL (≈ 2.29 µM).
